Assay [1] in a line: Trypanosoma cruzi growth suppression in host cells – NIH3T3 host cells, beta-gal luminescence, confirmation (AID 2044).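 Also: intracellular parasites grown in NIH/3T3 mouse fibroblasts as host cells; luminescent beta-galactosidase reporter signal from transgenic T. cruzi replicating inside host cells; inhibitors lower the luminescence signal.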 Type of assay: functional, cell-based.
Assay [2] can be described thus: NIH3T3 cell viability loss – ATP luminescence, mouse fibroblasts, counter-screen, dose response (AID 2010).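 Also: cells exposed to compound for about 90 hours before reading.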 Type of assay: functional, cell-based. For orientation: The purpose of a counterscreen is to sort out artefacts and off-target activity.
The next assay deals with Nonstructural protein 1 (Influenza A virus, UniProt Q194T2). Type of assay: functional, Influenza A virus (A/California/07/2009(H1N1)).
Chain of Nonstructural protein 1 (Q194T2 whole entry, the tested form may be a part): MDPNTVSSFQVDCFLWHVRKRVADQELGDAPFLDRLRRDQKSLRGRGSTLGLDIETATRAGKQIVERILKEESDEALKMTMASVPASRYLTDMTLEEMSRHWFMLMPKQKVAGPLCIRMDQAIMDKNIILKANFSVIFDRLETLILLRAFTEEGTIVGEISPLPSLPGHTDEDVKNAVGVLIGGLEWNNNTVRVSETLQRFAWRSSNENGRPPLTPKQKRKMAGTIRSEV
Assay [3] deals with T1, Carboxy-terminal domain RNA polymerase II polypeptide A small phosphatase 1 (Homo sapiens, UniProt Q9GZU7).
T1 sequence (Q9GZU7 whole entry): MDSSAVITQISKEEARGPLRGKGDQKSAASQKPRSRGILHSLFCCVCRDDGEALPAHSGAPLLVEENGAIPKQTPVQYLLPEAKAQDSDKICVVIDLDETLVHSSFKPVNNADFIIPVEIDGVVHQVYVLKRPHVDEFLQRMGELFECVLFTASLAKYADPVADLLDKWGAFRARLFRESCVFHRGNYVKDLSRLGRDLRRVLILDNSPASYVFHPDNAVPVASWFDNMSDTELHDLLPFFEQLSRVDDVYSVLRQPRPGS
The experiment in a line: CTDSP1 inhibitors, concentration-response, biochemical, absorbance readout, ultra-high-throughput screen actives (AID 540297). Type of assay: functional.

Assay [4] is described as follows: reduction of Shn3 3'UTR-driven luciferase in osteoblasts – cell-based, Clone20 osteoblasts, firefly luciferase, cherry-picked, dose response (AID 624132).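 Also: firefly luciferase luminescence from reporter carrying the Shn3 3'UTR in osteoblasts.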 Type of assay: functional.
Assay [5] is described as follows: loss of viability in HepG2 cells – cell-based, CellTiter-Glo, cherry-picked, cytotoxicity control for Shn3 inhibitor project, dose response (AID 624134). Type of assay: functional.
The nature of assay [6]: non-specific 3'UTR reporter inhibition in Clone20-Shn3RL – cell-based, Renilla luciferase, cherry-picked, counter-screen for Shn3 inhibitor project, dose response (AID 624133). It is filed as functional.
Assay [7] addresses T2, Corticotropin-releasing factor receptor 2/Corticotropin-releasing factor-binding protein (Homo sapiens, UniProt P24387+Q13324).
T2 sequence (Q13324 whole entry): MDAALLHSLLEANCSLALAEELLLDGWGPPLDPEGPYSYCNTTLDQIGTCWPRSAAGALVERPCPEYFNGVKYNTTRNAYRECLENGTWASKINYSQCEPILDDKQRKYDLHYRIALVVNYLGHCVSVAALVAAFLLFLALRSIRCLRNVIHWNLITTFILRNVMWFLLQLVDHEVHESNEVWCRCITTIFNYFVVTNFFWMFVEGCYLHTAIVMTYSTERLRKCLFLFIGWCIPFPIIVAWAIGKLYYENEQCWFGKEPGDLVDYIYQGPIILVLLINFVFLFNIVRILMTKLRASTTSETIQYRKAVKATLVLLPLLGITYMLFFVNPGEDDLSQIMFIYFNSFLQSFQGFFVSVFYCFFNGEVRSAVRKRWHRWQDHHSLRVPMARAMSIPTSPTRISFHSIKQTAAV
T2 sequence (P24387 whole entry): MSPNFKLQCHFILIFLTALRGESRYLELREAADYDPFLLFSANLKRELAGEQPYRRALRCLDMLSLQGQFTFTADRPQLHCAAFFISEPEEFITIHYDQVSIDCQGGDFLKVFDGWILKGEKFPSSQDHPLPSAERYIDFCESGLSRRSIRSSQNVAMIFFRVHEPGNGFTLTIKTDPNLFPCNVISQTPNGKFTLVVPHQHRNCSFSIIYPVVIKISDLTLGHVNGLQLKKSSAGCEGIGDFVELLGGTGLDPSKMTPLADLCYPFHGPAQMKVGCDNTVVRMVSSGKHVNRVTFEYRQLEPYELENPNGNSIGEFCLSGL
As to the kind of experiment: activators of CRF receptor 2 with binding protein – uHTS hits, confirmation (AID 602473). It is filed as functional. The following applies: read-out: EC50_Mean.

In another assay the test system is INS1. The experiment in a line: INS-1E survival protection against cytokine death – cell-based, luminescence, retest, dose response (AID 449756).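 Also: cell death triggered by IL-1 beta plus TNF-alpha plus IFN-gamma mixture; protective hits raise ATP signal compared with cytokine alone wells.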 Type of assay: functional. The following applies: Rattus norvegicus.
The test system of assay [8] is BJ. As to the kind of experiment: BJ-TERT fibroblast viability loss – cell-based, RAS-independent, luminescence, dose response (AID 1933). The following applies: Homo sapiens. It is filed as functional.
Assay [9] has as its system BJ. The experiment in a line: cells. It is filed as functional, cell-based. The settings on record: Homo sapiens.
Assay [10] concerns BJ. The experiment in a line: BJ-TERT-LT-ST fibroblast viability loss – cell-based, RAS-independent, luminescence, dose response (AID 1935).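 Also: BJ fibroblasts immortalized with TERT plus LT and ST oncogenes.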 Type of assay: functional. The settings on record: Homo sapiens.
The nature of assay [11]: DRD fibroblast viability loss – cell-based, non-viral oncogenic, luminescence, dose response (AID 1934). The following applies: Homo sapiens. It is filed as functional.
The nature of assay [12]: THP-1 cell cytotoxicity, dose response, cytotoxicity control for non-replicating M. tuberculosis project (AID 489025). It is filed as functional.
The next assay in a line: cells. It is filed as functional.
The nature of assay [13]: blockers of HIV-1 envelope-mediated cell-cell fusion – cherry-pick, dose response (AID 652057). It is filed as functional, cell-based.
Assay [14] can be described thus: blockers of HIV-1 ZM109 envelope-driven cell-cell fusion – HeLa effector, CEM target cells, luciferase, cherry-pick, dose response (AID 652058).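 Also: luciferase signal from HIV-1 Env mediated cell-cell fusion of effector and target cells.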 Type of assay: functional, cell-based.
A short description of assay [15]: HIV-1 AD8 envelope cell-cell fusion blockers – cherry-pick, dose response (AID 652062).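 Also: luciferase signal from cell-cell fusion driven by HIV-1 clade B AD8 Env; potency is for inhibitors of fusion seen as a drop in luminescence.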 Type of assay: functional, cell-based.
Assay [16] can be described thus: microbe, parasite or virus in culture. Type of assay: functional. The settings on record: Mycobacterium tuberculosis.
Assay [17] can be described thus: Luminescence Cell-Based Dose Retest to Confirm Inhibitors of Cancer Stem Cells. [Related pubchem assays (depositor defined):AID2717, AID2721]. Type of assay: functional. The settings on record: Homo sapiens.
Assay [18] can be described thus: viability of uninfected HEp-2 cells – cell-based, HTS, cytotoxicity control for RSV inhibitor project, dose response (AID 2410). It is filed as functional. The settings on record: human respiratory syncytial virus.
Another assay has as its target T3, Protein skinhead-1 (Caenorhabditis elegans, UniProt P34707).
T3 sequence (P34707 whole entry): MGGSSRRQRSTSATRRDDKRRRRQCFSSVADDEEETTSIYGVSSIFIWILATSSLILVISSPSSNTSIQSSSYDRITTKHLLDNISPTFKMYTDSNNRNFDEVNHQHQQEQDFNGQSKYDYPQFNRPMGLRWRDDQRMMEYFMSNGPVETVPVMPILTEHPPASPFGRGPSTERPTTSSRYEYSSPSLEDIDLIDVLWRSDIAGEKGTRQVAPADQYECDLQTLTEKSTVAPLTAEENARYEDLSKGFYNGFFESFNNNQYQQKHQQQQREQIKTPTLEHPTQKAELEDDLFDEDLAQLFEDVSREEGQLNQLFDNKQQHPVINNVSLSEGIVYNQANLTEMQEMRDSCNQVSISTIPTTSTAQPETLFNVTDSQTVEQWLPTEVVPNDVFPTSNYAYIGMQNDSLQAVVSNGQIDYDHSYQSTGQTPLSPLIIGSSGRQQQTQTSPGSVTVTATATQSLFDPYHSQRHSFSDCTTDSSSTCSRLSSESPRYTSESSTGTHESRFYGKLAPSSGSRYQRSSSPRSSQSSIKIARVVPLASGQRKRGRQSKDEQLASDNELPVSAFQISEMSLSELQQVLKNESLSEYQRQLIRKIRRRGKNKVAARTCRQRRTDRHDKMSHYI
Type of assay: functional.

Activity calls are given as the source filed them.

What is called IC50 is the concentration needed to halve the response being measured. For `COc1ccc2[nH]c(C)c(CCN(Cc3cccs3)C(S)=Nc3ccccc3)c2c1`, the EC50 was 2.82 µM (active) in assay [1] and > 60 µM (not active) in assay [2]. In addition, at Nonstructural protein 1, the IC50 is > 100 µM (active).

In the case of `Nc1ccc2cccc(O)c2c1`, the IC50 in [3] is 4.61 µM (active).

As usually defined, the AC50 is the midpoint of the concentration-response curve, whichever way the signal moves. In the case of `COc1cccc(CNc2nc(NCC3CC3)nc3ccsc23)c1`, the AC50 in assay [4] is 5.86 µM (active); in assay [5], 43 µM (active); in assay [6] it was 11.2 µM (active).

Turning to `CCOc1ccc(NC(=O)CN2C(=O)NC(C)(c3ccc(OC(F)F)cc3)C2=O)cc1` (configuration not stated), in [7], the EC50 is 13.2 µM (active).

As to `CCOc1ccc2c(c1)-c1c(ssc1=S)C(C)(C)N2C`, the concentration for half-maximal inhibition (IC50) at Nonstructural protein 1 is 12.8 µM (active).

For `Cc1ccc2[nH]c3nc(NN)nnc3c2c1`, at Nonstructural protein 1, the IC50 is 13.5 µM (active).

With `CCOc1cc(C)c(S(=O)(=O)Nc2ccc3c[nH]nc3c2)cc1C`, the AC50 in the assay with INS1 was 4.13 µM (active); in [4], 4.89 µM (active); in assay [5], 36 µM (active).

Regarding `O=C(c1ccccc1)c1ccc(-n2ccnc2)c([N+](=O)[O-])c1`, the EC50 in the assay on BJ [8] is > 150 µM (not active); with BJ [9], > 150 µM (not active); in the assay with BJ [10], > 150 µM (inconclusive); in assay [11], > 150 µM (not active).

In the case of `Cc1ccc(NC(=O)COc2ccc(-n3ccnc3)cc2)cc1Cl`, the CC50 in assay [12] was > 40 µM (active). Moreover, the IC50 in “cells” is 25.5 µM (active).

Take `Cc1ccc(S(=O)(=O)NC2=C(N3CCN(Cc4ccccc4)CC3)C(=O)c3ccccc3C2=O)cc1`: on Nonstructural protein 1, the IC50 was 22.4 µM (active).

Take `C[C@@H]1CN([C@@H](C)CO)C(=O)c2cccc(NS(=O)(=O)c3ccccc3)c2O[C@@H]1CN(C)Cc1ccc(Cl)c(Cl)c1`: the AC50 is 2.93 µM (active) in assay [13], 4.27 µM (active) in assay [14] and 3.86 µM (active) in assay [15].

For `COc1cccc2sc3ccc(C#CC4(N)CCCCC4)cc3c(=O)c12`, the CC50 in assay [16] was 20.1 µM (active).

With `COc1ccc(NC(=O)NNC(=O)c2ccc(-c3ccccc3)cc2)cc1`, the IC50 in assay [3] was 4.6 µM (active).

As for `COc1cc(OC)cc(N(C(=O)CNC(=O)c2cccs2)C(C(=O)NCC2CCCO2)c2ccc(OC)c(OC)c2)c1` (configuration not stated), the EC50 in [7] is > 53 µM (inactive).

Consider `Cc1ccc(S(=O)(=O)N2CCCCC2)cc1C(=O)Nc1cccnc1`, for which the IC50 in [3] was 9.14 µM (active).

Take `CCCS(=O)(=O)c1c(S(=O)(=O)CCC)c2c(C)cccn2c1C(=O)N/N=C/c1cc(O)cc(O)c1`: the EC50 was 23.5 µM (active) with BJ [8], 20.2 µM (active) with BJ [9], 18.1 µM (active) with BJ [10] and 27 µM (active) in assay [11]. Also, in assay [17], the AC50 is 2.52 µM (active).

Consider `Cn1nnnc1SCC1=C(C(=O)O)N2C(=O)C(NC(=O)C3CC3c3ccccc3)C2SC1` (configuration not stated), for which the IC50 in assay [3] was 11.8 µM (active).

Take `CC1=CC(C)(C)N2C(=O)C(=O)c3cc(OC(=O)c4ccco4)cc1c32`: the EC50 is > 150 µM (not active) with BJ [8], 11.6 µM (active) with BJ [9], 11.3 µM (inconclusive) with BJ [10] and 11.2 µM (inconclusive) in assay [11].

For the compound `CCCCn1c(NCc2ccc3c(c2)OCO3)nc2ccccc21`, in [16], the CC50 was 39.6 µM (active).

Turning to `C=C[C@]1(C)C=C2C(=O)[C@@]3(O)OC(=O)[C@@]4(CCCC(C)(C)[C@H]34)[C@@]2(O)CC1` [SPHAEROPSIDIN A], the AC50 in assay [4] is 4.98 µM (active); in assay [5] it was 12 µM (active); in assay [6], 4.85 µM (active).

Consider `Cc1cc(C)cc(-n2c(C)cc(C(=S)N3CCOCC3)c2C)c1`, for which, at Nonstructural protein 1, the IC50 is 95.6 µM (active).

On to `O=C(Nc1nccs1)c1ccc(-c2ccc(Cl)cc2)o1`, for which the CC50 is > 50 µM (active) in assay [18] and > 40 µM (active) in [12]. The IC50 is 25.6 µM (active) in “cells” and > 100 µM (inactive) on Protein skinhead-1.

`O=C(C[C@H]1C[C@@H]2c3cc(NS(=O)(=O)c4ccc(F)cc4)ccc3O[C@@H]2[C@H](CO)O1)NCc1ccc(Cl)cc1`: the half-maximal activity concentration (AC50) in assay [13] is 1.72 µM (active); in assay [14] it was 5.21 µM (active); in assay [15] it was 4.14 µM (active).

As for `COc1cc2ccccc2cc1C(=O)Nc1ccc(Cc2ccncc2)cc1`, the values for the EC50 in [1] and in assay [2] were 1.99 µM (active) and 8.08 µM (active), respectively. In addition, in assay [16], the CC50 was 22 µM (active).

Source of the values: ChEMBL document CHEMBL1201862, “PubChem BioAssay data set” (2004).
